From US6458766B1, “Halovir, an antiviral marine natural product, and derivatives thereof” (The Regents of the University of California, priority 1998, dated 2002)
Read-outs that look alike come from different tables or passages of the source. Non-standard residues stand in square brackets, D forms with d. Residues, ends and D or L forms follow the SMILES beside them. *: point of attachment. Myristoyl = CCCCCCCCCCCCCC(=O)*; Hyp = O=C(O)[CH]1C[CH](O)CN1; Leu(ol) = CC(C)C[CH](N)CO; X1 = CC(=O)OCC(CC(C)C)N*; Aib = CC(C)(N)C(=O)O

Experiments:
HSV-1 [1] = test: MTT assay for antiviral activity against HSV-1 in Vero cells; assay type: cell-based, Herpes simplex virus; conditions: for antiviral activity against HSV-1: pure compounds from C18 HPLC of active fractions; for cells subjected to infection protected: test concentration 2.5 μg/mL, Vero cells, 50 pfu virus, five days incubation
Experimental: Antiviral activity of the halovirs was determined in vitro against the. HSV-I by an MTT assay (Hitoshi Takeuchi, An application of tetrazolium (MTT) calorimetric assay for screening of anti-herpes simplex virus compounds, Journal of Virological Methods, 33 (1991) 61-71), modified as follows. Vero cells were plated at a concentration of 10,000 cells/well in 100 μL of minimum essential medium (MEM) containing 5% fetal bovine serum (FBS) in 96-well plates. The cells were incubated overnight at 37° C. and 5% CO2. The media was removed by aspiration, and 100 μL of phosphate buffered saline (PBS) was added to each well and then aspirated. The wells were treated with 100 μL of MEM containing 50 plaque forming units (pfu) of virus and incubated for one hour. Each well was then overlayed with 100 μL of media containing 2% FBS and serial dilutions of an appropriate halovir solution. The halovir solution was previously prepared by dissolving the halovir in DMSO. After incubation for five days, each well was treated with 20 μL of a solution of 10 mg/mL of MTT in PBS. […] The media was carefully aspirated, and 100 μL of acidified isopropanol was added to dissolve any formazan produced. Acidified isopropanol solution is prepared by adding 50 mL Triton X100 and 2 mL concentrated HCL to 450 mL isopropanol. The optical density of the wells at 550 nm was determined using an ELISA plate reader. The amount of formazan present is directly proportional to the number of surviving cells in a given well. The amount of formazan were spectrophotometrically measured in wells with no antiviral agent and virus to establish a quantitative standard for 100% cell survival. Similarly wells with only virus were measured and used to establish a quantitative standard for 0% cell survival. At a test concentration of 2.5 μg/mL, Halovirs A, B, C, and D protected 50%, 40%, 33%, and 55%, respectively, of the cells subjected to infection.

HSV-1 [2] = assay type: cell-based, Herpes simplex virus
Experimental: Four experimental solutions were prepared.
Solution 1: Viral Inactivation
HSV-1 was diluted to 50,000 pfu/ml in 1.35 mL MEM with 0% Fetal Bovine Serum (0% MEM). This was treated with 8.2 μL of a solution of Halovir A dissolved in DMSO at a concentration of 25 mg/mL.
Solution 2: DMSO Inactivation Control
Solution 2 was prepared in an identical manner as solution 1, except that pure DMSO was added to the viral suspension.
This experiment provides a baseline for 100% cell survival. Solution 3 was prepared with 1.35 mL 0% MEM with 8.2 μL DMSO.
Solution 4: Normal Assay Conditions
Virus was diluted in 1.36 mL 0% MEM to a final concentration of 50,000 pfu/mL. No DMSO or Halovir A was added.
All solutions were vortexed for 30 seconds and then shaken at ambient temperature for 2.5 hours. They were then vortexed for 30 seconds, and 100 μL of each was diluted with 9.9 mL of 0% MEM (100×dilution). The diluted solutions are herein referred to as solutions 1-4.
96-well microtiter plates were prepared with Vero cells overnight, washed with PBS, and aspirated as previously described. 100 μL of Solution 1 was added to each well of a microtiter plate containing cells. This was repeated for Solutions 2-4. The plates were incubated at 37° C. and 5% CO2. After one hour, experiment plates prepared with Solutions 1-3 were overlaid with 100 μL of 2% MEM. […]

SMILES	antiviral activity against HSV-1 (HSV-1 [1])	cells subjected to infection protected (HSV-1 [1]) [%]	mean optical density at 550 nm (OD) (HSV-1 [2]; Solution 1: HSV-1 treated with Halovir A for 2.5 hours, 100x dilution, then added to Vero cells, mean of 80 wells)	mean optical density at 550 nm (OD) (HSV-1 [2]; Solution 4: normal assay conditions, untreated virus, overlay with 2% MEM containing 1.5 μg/mL Halovir A after one hour)
CCCCCCCCCCCCCC(=O)NC(C)(C)C(=O)N1CCCC1C(=O)NC(CC(C)C)C(=O)NC(C(=O)NC(CCC(N)=O)C(=O)NC(CO)CC(C)C)C(C)C (stereo not drawn) [Halovir C, CH3(CH2)12C(O)-Aib-Pro-Leu-Val-Gln-Leu(OH)] (Myristoyl-[Aib]PLVQ[Leu(ol)]; configuration not given here)	potent antiviral activity	33		
CCCCCCCCCCCCCC(=O)NC(C)(C)C(=O)N1CC(O)CC1C(=O)NC(CC(C)C)C(=O)NC(C(=O)NC(CCC(N)=O)C(=O)NC(CO)CC(C)C)C(C)C (stereo not drawn) [Halovir A, CH3(CH2)12C(O)-Aib-Hyp-Leu-Val-Gln-Leu(OH)] (Myristoyl-[Aib][Hyp]LVQ[Leu(ol)]; configuration not given here)	potent antiviral activity	50	1.18	0.32
CCCCCCCCCCCCCC(=O)NC(C)(C)C(=O)N1CC(O)CC1C(=O)NC(CC(C)C)C(=O)NC(C)C(=O)NC(CCC(N)=O)C(=O)NC(CO)CC(C)C (stereo not drawn) [Halovir B, CH3(CH2)12C(O)-Aib-Hyp-Leu-Ala-Gln-Leu(OH)] (Myristoyl-[Aib][Hyp]LAQ[Leu(ol)]; configuration not given here)	potent antiviral activity	40		
CCCCCCCCCCCCCC(=O)NC(C)(C)C(=O)N1CC(OC(C)=O)CC1C(=O)NC(CC(C)C)C(=O)NC(C(=O)NC(CCC(N)=O)C(=O)NC(COC(C)=O)CC(C)C)C(C)C (stereo not drawn) [Halovir D, CH3(CH2)12C(O)-Aib-Hyp(OAc)-Leu-Val-Gln-Leu(OAc)] (Myristoyl-[Aib][Hyp](Ac)LVQ-X1; configuration not given here)		55		
